Experimental data published in patent publication US20230087359A1, “CANNABINOID COMPOSITIONS AND METHODS OF USE THEREOF” (DAY THREE LABS MAN[…]., priority 2017, published 2023).

Test system: pentobarbital-induced sleep
Test: Loss Of Righting Reflex (LORR) test, pentobarbital-induced sleep in mice
Type: in vivo, mouse (7-week-old male Balb/C mice)
[1] = LORR test, IP treatment 30 min before pentobarbital 30 or 40 mg/kg IP, diazepam 3 mg/kg

## CN1C(=O)CN=C(c2ccccc2)c2cc(Cl)ccc21 [diazepam]
Example 1, FIG. 3
  percentage of mice in treatment group that fell asleep after pentobarbital administration: 92%
Example 1, FIG. 4
  percentage of subjects with a transient awakening (woke up once) during the sleep session: 25%
  percentage of subjects with no transient awakenings during the sleep session: 75%
Example 2, FIG. 7
  percentage of mice in treatment group that fell asleep after pentobarbital administration (response rate): 86%
[1]
  mean sleep duration: 60 to 90 min
  mean sleep onset: 3 to 5 min
